The compounds below were run against Glutamate carboxypeptidase 2 (Homo sapiens, UniProt Q04609) (assay: Inhibition of recombinant human PSMA using [3H]NAAG as substrate preincubated for 15 mins followed by substrate addition measured after 20 mins by liquid scintillation method).
Glutamate carboxypeptidase 2, sequence (Q04609 whole entry): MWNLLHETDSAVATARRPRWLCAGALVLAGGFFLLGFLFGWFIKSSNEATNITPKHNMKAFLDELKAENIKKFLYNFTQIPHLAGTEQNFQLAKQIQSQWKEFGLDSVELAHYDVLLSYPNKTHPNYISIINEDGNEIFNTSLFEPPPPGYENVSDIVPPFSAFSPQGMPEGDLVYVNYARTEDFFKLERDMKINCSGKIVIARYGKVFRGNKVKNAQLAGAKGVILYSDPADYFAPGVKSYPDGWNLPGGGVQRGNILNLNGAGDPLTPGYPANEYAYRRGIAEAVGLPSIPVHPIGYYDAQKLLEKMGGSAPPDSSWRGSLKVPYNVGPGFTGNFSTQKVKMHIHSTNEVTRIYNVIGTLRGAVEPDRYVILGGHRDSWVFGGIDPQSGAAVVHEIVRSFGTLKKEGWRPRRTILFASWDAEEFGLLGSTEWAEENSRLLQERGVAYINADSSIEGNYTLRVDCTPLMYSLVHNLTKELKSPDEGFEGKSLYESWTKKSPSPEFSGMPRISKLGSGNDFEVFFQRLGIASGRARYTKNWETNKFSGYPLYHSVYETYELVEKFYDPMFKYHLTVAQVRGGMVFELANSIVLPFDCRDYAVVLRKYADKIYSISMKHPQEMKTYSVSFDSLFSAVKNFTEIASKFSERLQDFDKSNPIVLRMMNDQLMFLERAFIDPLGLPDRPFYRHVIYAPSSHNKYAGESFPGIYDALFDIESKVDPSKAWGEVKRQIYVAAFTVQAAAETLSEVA
With O=C(O)CC[C@H](NC(=O)N[C@@H](CCCC(=O)Nc1cccc(F)c1)C(=O)O)C(=O)O the IC50 was 0.28 nM.
For O=C(O)CC[C@H](NC(=O)N[C@@H](CCCC(=O)NCc1ccc(F)cc1)C(=O)O)C(=O)O, the IC50 was 2.32 nM.
For C[C@H](NC(=O)CCC[C@H](NC(=O)N[C@@H](CCC(=O)O)C(=O)O)C(=O)O)c1ccc(F)cc1, the IC50 was 5.24 nM.
Compound O=C(O)CC[C@H](NC(=O)N[C@@H](CCCC(=O)N(CCNC(=O)c1ccc(F)nc1)c1ccccc1)C(=O)O)C(=O)O has an IC50 of 0.13 nM.
Work on C[C@H](NC(=O)CCC[C@H](NC(=O)N[C@@H](CCC(=O)O)C(=O)O)C(=O)O)c1ccc(F)nc1 yielded an IC50 of 4.46 nM.
O=C(O)CC[C@H](NC(=O)N[C@@H](CCCC(=O)NC(c1ccc(F)cc1)c1ccc(F)cc1)C(=O)O)C(=O)O showed an IC50 of 1.19 nM.
For CN(Cc1ccc(F)cc1)C(=O)CCC[C@H](NC(=O)N[C@@H](CCC(=O)O)C(=O)O)C(=O)O, the IC50 was 0.64 nM.
CN(C(=O)CCC[C@H](NC(=O)N[C@@H](CCC(=O)O)C(=O)O)C(=O)O)c1ccc(F)nc1 gave an IC50 of 0.075 nM.
O=C(O)CC[C@H](NC(=O)N[C@@H](CCCC(=O)NCc1cccc(F)c1)C(=O)O)C(=O)O was tested, and the IC50 was 2.91 nM.
O=C(O)CC[C@H](NC(=O)N[C@@H](CCCC(=O)N(CCNC(=O)c1ccc(F)cc1)c1ccccc1)C(=O)O)C(=O)O gave an IC50 of 0.15 nM.
In the case of C[C@@H](NC(=O)CCC[C@H](NC(=O)N[C@@H](CCC(=O)O)C(=O)O)C(=O)O)c1ccc(F)cc1, the IC50 is reported as 5.44 nM.
CN(C(=O)CCC[C@H](NC(=O)N[C@@H](CCC(=O)O)C(=O)O)C(=O)O)c1ccc(F)cc1 was tested, and the IC50 was 0.2 nM.
O=C(O)CC[C@H](NC(=O)N[C@@H](CCCC(=O)N1CCN(c2ccc(F)cc2)CC1)C(=O)O)C(=O)O was tested, and the IC50 was 1.31 nM.
In the case of CN(Cc1cccc(F)c1)C(=O)CCC[C@H](NC(=O)N[C@@H](CCC(=O)O)C(=O)O)C(=O)O, the IC50 is reported as 0.46 nM.
Compound O=C(O)CC[C@H](NC(=O)N[C@@H](CCCC(=O)NCCNC(=O)c1ccc(F)nc1)C(=O)O)C(=O)O has an IC50 of 1.11 nM.
O=C(O)CC[C@H](NC(=O)N[C@@H](CCCC(=O)Nc1ccc(F)cc1)C(=O)O)C(=O)O was tested, and the IC50 was 0.35 nM.
Work on O=C(O)CC[C@H](NC(=O)N[C@@H](CCCC(=O)Nc1ccc(F)nc1)C(=O)O)C(=O)O yielded an IC50 of 0.99 nM.
Work on O=C(O)CC[C@H](NC(=O)N[C@@H](CCCC(=O)NCc1ccccc1F)C(=O)O)C(=O)O yielded an IC50 of 2.11 nM.
For O=C(O)CC[C@H](NC(=O)N[C@@H](CCCC(=O)NCCNC(=O)c1ccc(F)cc1)C(=O)O)C(=O)O, the IC50 was 0.94 nM.

— ChEMBL document CHEMBL4266058, “2-Aminoadipic Acid-C(O)-Glutamate Based Prostate-Specific Membrane Antigen Ligands for Potential Use as Theranostics” (ACS Med Chem Lett, 2018)
